Earlier results, collected in paper PMC6257630, “Photoactivatable Cell-Selective Dinuclear trans-Diazidoplatinum(IV) Anticancer Prodrugs” (Inorganic Chemistry, 2018).

System: cisplatin-resistant A2780cis cells
Set-up: method as in PMID 20677309
Details: irradiation with UVA (365 nm); cited from earlier work

## trans,trans,trans-[Pt(N3)2(OH)2(py)2] [FM-190]
  IC50: 14.5 µM
